Tested on: Plasmopara viticola
Assay: Field application trial against downy mildew on vineyard (PESSEV / PESINC assessment on leaves and bunches)
Type: in vivo
Conditions: between T2 (0.021 kg DM/ha) and T3 (0.21 kg DM/ha), both on leaves and bunches
Protocol: The application trials were carried out in Piedmont, Italy. In these trials, three different dosage rates of three of the above-mentioned samples (SRCC1-0.5 DM, SRCC1-5 DM, SRCC1-25 DM) were applied against downy mildew on vineyard and the efficacy and selectivity thereof was evaluated. In addition, the performance in comparison to commercially available fungicides was also evaluated. […]
The efficacy against Plasmopara viticola and the selectivity on the crop of the test products SRCC1-0.5 DM and SRCC1-5 DM both applied in mixture with tribasic copper sulfate (Cupravit Bio Evoluion WG), respectively, in treatments T2 and T3, were evaluated. […]
The efficacy of SRCC1-25 DM was also evaluated in treatment T4 and compared with the reference F50 sprayed in treatment T6. […]
In this trial according to the present invention, the disease pressure was assessed through two standard parameters: • (i) PESSEV=the pest severity (i.e. the intensity) determined as infected area per bunch or leaf in %; and • (ii) PESINC=the pest incidence (i.e. the frequency) determined in % of bunches and leaves infected. […]

COc1ccc(C(=CC(=O)N2CCOCC2)c2ccc(Cl)cc2)cc1OC [dimethomorph]
dosage rate effect of active ingredient: significant dosage rate effect

— patent US10292383B2, “Use of surface-reacted calcium carbonate as carrier for agrochemical compounds” (Omya International AG, priority 2015, dated 2019)
